# Active and inactive are the calls of the source.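 How the source made its calls: active means maximal inhibition of the USP30 enzyme reaching 30% or more across the dose series; inactive means the rest.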
# Biological target: Ubiquitin carboxyl-terminal hydrolase 30 (Homo sapiens) (UniProt Q70CQ3)
# Test: ubiquitin-specific protease 30 DUB inhibitors, concentration-effect, biochemical, validation of primary actives (AID 1645865)
# Details: purified USP30, Ub-rhodamine cleavage, fluorescence, 2 h
# Ubiquitin carboxyl-terminal hydrolase 30 (Homo sapiens), sequence (Q70CQ3 whole entry, looked up): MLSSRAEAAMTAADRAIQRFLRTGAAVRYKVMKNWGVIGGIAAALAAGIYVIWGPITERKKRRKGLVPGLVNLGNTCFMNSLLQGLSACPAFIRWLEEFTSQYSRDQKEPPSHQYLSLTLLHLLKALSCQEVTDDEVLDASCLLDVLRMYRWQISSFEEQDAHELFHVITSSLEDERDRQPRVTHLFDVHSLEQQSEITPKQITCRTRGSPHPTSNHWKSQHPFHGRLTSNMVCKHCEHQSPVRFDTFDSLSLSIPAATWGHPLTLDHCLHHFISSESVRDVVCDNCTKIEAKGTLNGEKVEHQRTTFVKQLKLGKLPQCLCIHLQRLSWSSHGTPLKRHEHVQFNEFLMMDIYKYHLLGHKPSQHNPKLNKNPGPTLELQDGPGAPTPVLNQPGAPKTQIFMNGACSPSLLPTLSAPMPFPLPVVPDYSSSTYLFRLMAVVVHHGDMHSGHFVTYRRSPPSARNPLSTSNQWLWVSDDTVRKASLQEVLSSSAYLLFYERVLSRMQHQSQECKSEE
row,SMILES,IC50
1,O=C(COC(=O)c1cc2c(s1)CCC2)c1ccc2[nH]c(=O)[nH]c2c1,> 50 µM (inactive)
2,COc1ccc2nc(SCC(=O)Nc3ccc(NC(C)=O)cc3)c(C)cc2c1,4.95 µM
3,Cc1ccc(CNC(=O)c2ccc(N3C(=O)[C@@H]4Cc5ccccc5CN4C3=O)cc2)cc1,23.6 µM
4,O=C(COc1ccc(Cl)cc1Cl)Nc1ccccc1-c1nc2ccccc2[nH]1,1.61 µM
5,Cc1ccc(C)c(S(=O)(=O)N2CCN(c3ccc4nnc(-c5ccco5)n4n3)CC2)c1,> 50 µM (inactive)
6,COc1ccc(NC(=O)CN2C(=O)c3ccccc3Sc3ccc(C(=O)N4CCCC4)cc32)c(OC)c1,> 50 µM (inactive)
7,COc1ccc(C(=O)NCc2csc3ccccc23)cc1,45.2 µM
8,O=S(=O)(Nc1ccc(O)cc1)c1ccc2oc3ccc(S(=O)(=O)Nc4ccc(O)cc4)cc3c2c1,26.5 µM
9,N#Cc1ccc(COC(=O)c2ccc3ccccc3n2)cc1,> 50 µM (inactive)
10,COc1ccc(/C=C\c2nccc3c2[nH]c2ccccc23)cc1,> 50 µM (inactive)
11,CC(=O)Nc1ccc(O)c(-c2nc3cc(C)ccc3o2)c1,3.99 µM
12,Cn1c(SCc2ccccc2)nnc1-c1csc(-c2ccccc2)n1,22.5 µM
13,CC(C)(C)n1nc(C2CC2)c(Br)c1NC(=O)c1ccccc1F,34.1 µM
14,CCCCCn1c(Sc2ccc(C)cc2)nc2c1c(=O)[nH]c(=O)n2C,11.3 µM
15,CC(=O)c1ccc(NC(=O)/C(=C/c2ccco2)n2nnnc2-c2ccccc2)cc1,> 50 µM (inactive)
16,CCOc1ccc2cc3c(nc2c1)OC(=O)N(Cc1ccc(C)o1)C3,1.29 µM
17,Cc1ccc(-c2nc(-c3cccs3)cc(C(F)(F)F)c2C#N)cc1,> 50 µM (inactive)
18,O=C(Nc1ccccc1)C1CCCN(C(=O)c2cc3ccccc3[nH]2)C1 (stereo not given),25.3 µM
19,N=C1C(c2nc3ccccc3s2)=C(O)CN1Cc1ccc(F)cc1,> 50 µM (inactive)
20,CCCCCCCc1cc(O)cc(OC(=O)c2c(CCCCCCC)cc(O)cc2O[C@H]2O[C@H](C(O)CO)[C@@H](O)[C@@H]2O)c1 (stereo not given in full),40.3 µM
21,Cn1c(=O)cc(SCC(=O)NC2CCN(Cc3ccccc3)CC2)c2ccc(Cl)cc21,28.8 µM
22,Cc1oc2ccc(NS(=O)(=O)c3ccc(F)cc3)cc2c1C(=O)OCc1ccccc1,48.2 µM
23,COc1ccc(NC(=O)Nc2cccc(-c3nnc(-c4ccccc4)o3)c2)cc1OC,8.55 µM
24,Cc1ccc2c(c1C)NC(=O)[C@]21[C@@H]2C(=O)N(c3cccc(Cl)c3)C(=O)[C@@H]2[C@@H]2CCCN21,> 50 µM (inactive)

row,SMILES,IC50
1,CCCCNC(=O)c1cc2cccnc2n(Cc2ccccc2)c1=O,> 50 µM (inactive)
2,CC(C)CC(NC(=O)c1ccc(Cl)cc1Cl)c1nc2ccccc2[nH]1 (stereo not given),> 50 µM (inactive)
3,COc1ccccc1OCC(=O)Nc1ccc2c(c1)CCC(=O)N2Cc1ccccc1,> 50 µM (inactive)
4,Cn1c(CN2CCCCCC2)nc2cc(NC(=O)c3ccccc3)ccc21,> 50 µM (inactive)
5,Cn1c(CCN2CCCC2)nc2cc(NC(=O)c3ccccc3)ccc21,> 50 µM (inactive)
6,O=C(Cn1cnc2c(oc3ccccc32)c1=O)NCc1ccccc1Cl,35.9 µM
7,Cc1ccc(C2c3c(-c4ccccc4O)n[nH]c3C(=O)N2Cc2ccco2)cc1 (stereo not given),21.3 µM
8,COc1ccc(NC(=O)CSc2nnc(Cc3cccc4ccccc34)n2C)cc1,> 50 µM (inactive)
9,Cc1cc(N2CCN(c3ncccn3)CC2)nc2ccc(NC(=O)c3ccncc3)cc12,2.68 µM
10,Cc1cc(/C=C2/C(=N)N3C(c4ccccc4)=CSC3=NC2=O)c(C)n1-c1ccc(F)cc1,> 50 µM (inactive)
11,CC(C)c1ccc(NC(=O)c2cc3ncc(Br)cn3n2)cc1,> 50 µM (inactive)
12,CC(C)=CCCC1(C)OC2=C(C(=O)c3cc(O)cc(O)c3C2=O)[C@H]2C=C(C)CC[C@H]21 (stereo not given in full),> 50 µM (inactive)
13,CC12c3ccc4c(c3C(=O)c3occ(c31)C(=O)CC2O)CCC4=O (stereo not given),> 50 µM (inactive)
14,O=C1CC(O)C(O)c2cccc(O)c21 (stereo not given),> 50 µM (inactive)
15,COc1ccc(CNc2nn3c(-c4cncc(OC)c4)cnc3s2)cc1,1.5 µM
16,O=S1(=O)CCN(Cc2ccccc2)c2c(F)nc(N3CCCCC3)c(F)c21,> 50 µM (inactive)
17,COc1ccc(Cl)cc1-n1nnc(C(=O)N2CCc3ccccc3C2)c1C,> 50 µM (inactive)
18,N#Cc1cccc(S(=O)(=O)N2CCc3nc4ccccc4n3CC2)c1,20.3 µM
19,CCCCn1c(=O)c(CCC(=O)OCC(=O)Nc2ccc3c(c2)OCCO3)nc2ccccc21,> 50 µM (inactive)
20,CC1Oc2ccccc2C(=O)N(Cc2ccc([N+](=O)[O-])cc2)C1=O (stereo not given),> 50 µM (inactive)
21,Cc1sc2ncn3c(=O)n(CC(=O)Nc4ccc(F)c(Cl)c4)nc3c2c1C,2.07 µM
22,Cc1ccc(C(=O)NCc2ccc(C(=O)Nc3ccc(C)c(C)c3)o2)cc1,21.4 µM
23,c1ccc(-n2nnc(-c3noc(-c4ccccn4)n3)c2-c2ccncc2)cc1,25.4 µM
24,CC(C)NC(=O)CN1C(=O)CC(C)Sc2ccc(S(=O)(=O)N3CCCCC3)cc21 (stereo not given),27.1 µM

row,SMILES,IC50
1,Cc1ccc(C(=O)Nc2ccc(S(=O)(=O)N3CCCC3)cc2)cc1Br,> 50 µM (inactive)
2,Cc1cc(O)c(Oc2cc(C)cc(O)c2O)c(O)c1,33.1 µM
3,N#Cc1c(-c2cccs2)cc(-c2cccs2)[nH]c1=O,> 50 µM (inactive)
4,CCn1c(COc2cccc(C(F)(F)F)c2)nnc1SCc1ccc(Cl)cc1,15.9 µM
5,O=C(Nc1ccc2ccccc2n1)c1ccc(Cl)cc1,2.08 µM
6,COc1cccc(C(=O)Oc2ccc3c(=O)c(-c4ccc(OC)c(OC)c4)coc3c2)c1,0.152 µM
7,CCN(CC)C(=O)CN1CCCC(c2ncncc2-c2cc(C)no2)C1 (stereo not given),> 50 µM (inactive)
8,Cc1nc(-c2noc(-c3ccncc3)n2)cn1CC(=O)N1CCN(c2ccc(F)cc2)CC1,39.1 µM
9,C=C(NC(=O)C(=C)NC(=O)c1csc(-c2ccc3c(n2)-c2csc(n2)-c2csc(n2)C(C(C)C2CO2)NC(=O)C(Cc2ccc(O)cc2)NC(=O)c2csc(n2)C(C(O)c2ccccc2)NC(=O)c2nc(sc2C)C(CC(N)=O)NC(=O)c2csc-3n2)n1)C(=O)O (stereo not given),> 50 µM (inactive)
10,COc1ccc(CCNC(=O)CCCn2c(=O)c3ccccc3n(CC(=O)OCc3ccccc3)c2=O)cc1OC,18.3 µM
11,CN1C(=O)[C@@]23C[C@]4([C@@]56C[C@]78SS[C@](CO)(C(=O)N7[C@@H]5Nc5ccccc56)N(C)C8=O)c5ccccc5N[C@@H]4N2C(=O)[C@]1(CO)SS3,0.266 µM
12,CN1CCN(c2ccc3nc(-c4ccccc4)c(-c4ccccc4)nc3c2)CC1,> 50 µM (inactive)
13,CC(C(=O)NCc1ccc(F)cc1)n1cccc1C(=O)c1ccccc1 (stereo not given),> 50 µM (inactive)
14,O=c1sc2ccccc2c(=O)n1Cc1cccc(C(F)(F)F)c1,> 50 µM (inactive)
15,Cc1ccc(NC(=O)Cn2cc(S(=O)(=O)N3CCCC3)ccc2=O)cc1,20.3 µM
16,COc1ccc(NC(=O)c2nc3n(n2)-c2ccccc2S(=O)(=O)N3)cn1,> 50 µM (inactive)
17,Cn1c(=O)c(C(=O)CN2CCN(c3ccc(O)cc3)CC2)c(N)n(Cc2ccccc2)c1=O,> 50 µM (inactive)
18,Cc1noc(-c2cc(=O)n(CC(=O)NCc3ccccc3)c3ccccc23)n1,> 50 µM (inactive)
19,O=C(c1cc(Cl)ccc1Cl)N1CCN(c2ccc3nnc(-c4ccco4)n3n2)CC1,> 50 µM (inactive)
20,Cc1cnc(CN2CCCC(c3ccc4cn[nH]c4n3)C2)cn1 (stereo not given),> 50 µM (inactive)
21,COc1cc(Cl)c(C)cc1NC(=O)Cn1c(=O)n(CC(=O)NCc2ccco2)c(=O)c2ccccc21,1.34 µM
22,Cc1nn(-c2ccc(Cl)cc2)c2[nH]c(=O)c(CNCC3CCCO3)cc12 (stereo not given),> 50 µM (inactive)
23,CCOc1ccc(NC(=O)COc2cccc3c2CCN(CC)C3=O)cc1,> 50 µM (inactive)
24,CCOc1ccc(NC(=O)c2nc3c(=O)[nH]c4cc(C)ccc4n3n2)cc1,> 50 µM (inactive)

row,SMILES,IC50
1,COc1cc(-c2ccno2)ccc1S(=O)(=O)Nc1ccccc1Cl,> 50 µM (inactive)
2,COCCNC(=O)c1ccc(-c2ccc(N3CCCCC3)nc2)cc1,22.9 µM
3,CC(=O)N1CCc2cc(S(=O)(=O)NCCC(=O)Nc3cccc(C)c3C)ccc21,39 µM
4,CCC(C)NC(=O)Cn1c(=O)n(-c2ccccc2)c(=O)c2ccc(C(=O)NCc3ccco3)cc21 (stereo not given),28.5 µM
5,O=[N+]([O-])c1ccc(N2CCN(c3ncnc4c3[nH]c3ccc(F)cc34)CC2)cc1,0.156 µM
6,CC(NC(=O)c1ccccc1)c1nc2ccccc2n1CC(=O)Nc1ccc2c(c1)OCO2 (stereo not given),2.06 µM
7,COc1cc(NC(=O)c2cc(CN3CCOCC3)on2)cc(OC)c1,> 50 µM (inactive)
8,O=C(NCCc1ccco1)c1ccc(N2CCOc3ccccc32)s1,27.4 µM
9,CCOC(=O)c1c(C)oc2nc(CSc3ccccc3)[nH]c(=O)c12,> 50 µM (inactive)
10,N[C@@H](Cc1ccccc1)C(=O)N1CCC2(CC1)CN(C(=O)c1ccc(Cl)cc1)CCO2,> 50 µM (inactive)
11,Cc1ncncc1C(=O)N1CCCC(C)(c2ncc(Cc3cccc(F)c3)o2)C1 (stereo not given),> 50 µM (inactive)
12,O=[N+]([O-])c1ccc2c(c1)nc1n2CCN(Cc2ccco2)C1,> 50 µM (inactive)
13,COCCCNC(=O)c1ccc(Cn2c(=O)c3ccccc3n(CC(=O)Nc3ccc(OC)cc3)c2=O)cc1,23.9 µM
14,O=c1c2ccccc2oc2nc(-c3cccs3)n(-c3ccccc3)c(=O)c12,2.42 µM
15,O=C(/C=C/c1ccco1)c1cccc([N+](=O)[O-])c1,40.1 µM
16,COC(=O)C1C(c2ccc(OC)cc2)C2(C(=O)c3ccccc3C2=O)C2C=Cc3ccccc3N12 (stereo not given),> 50 µM (inactive)
17,O=C(c1ccnn1-c1ccc2ccc(-c3ccncc3)cn12)N1CCCC1,> 50 µM (inactive)
18,CC(=O)c1cccc(NC(=O)c2ccc(CN(c3ccc(C)c(C)c3)S(C)(=O)=O)cc2)c1,> 50 µM (inactive)
19,COc1ccc(C(=O)N2CCCC3(C2)Nc2cccnc2NC3=NC2CCCC2)cn1 (stereo not given),> 50 µM (inactive)
20,COc1ccc(OC)c(NC(=O)Cn2c(=O)n(CC3CCC(C(=O)NCCc4ccccc4)CC3)c(=O)c3ccccc32)c1 (stereo not given),1.77 µM
21,O=C(CNC(=O)OCc1ccccc1)Nc1ccc(Br)cc1C(=O)c1ccccc1Cl,5.77 µM
22,Cc1ccc(NCc2cc3c(C(C)(C)C)nn(-c4ccc(Cl)cc4)c3[nH]c2=O)cc1,> 50 µM (inactive)
23,c1ccc(CN2CCN(c3nc4ccccc4n4nnnc34)CC2)cc1,> 50 µM (inactive)

# From PubChem BioAssay AID1645865 (Buhrlage Lab, Dana-Farber Cancer Institute and Novartis …, 2021)
